Test results published in ChEMBL document CHEMBL1201862, “PubChem BioAssay data set” (2004).
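Briefly, cells in 96-well plates were exposed to five compound concentrations for 48 h, and endpoints were estimated by linear interpolation. Here, GI50 denotes the concentration required for 50% inhibition of growth.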 Calls of active or inactive are those of the source. Rule as the data show it: active = GI50 up to about 1.1 µM and inactive = higher.

Columns and labels:
Experiment in all cases: NCI-60 cell line screen, 48 h
[1] = tested on: IGROV-1
[2] = tested on: SK-MEL-5
[3] = tested on: HOP-62
[4] = tested on: 786-0
[5] = tested on: NCI/ADR-RES
[6] = tested on: SK-OV-3
[7] = tested on: TK-10
[8] = tested on: U-251
[9] = tested on: NCI-H226
[10] = tested on: DU-145
[11] = tested on: Malme-3M
[12] = tested on: RPMI-8226
[13] = tested on: MDA-MB-231
[14] = tested on: UACC-62
[15] = tested on: HT-29
[16] = tested on: OVCAR-4
[17] = tested on: SK-MEL-28
[18] = tested on: SNB-19
[19] = tested on: SNB-75
[20] = tested on: BT-549
[21] = tested on: A549
[22] = tested on: PC-3
[23] = tested on: NCI-H23
[24] = tested on: COLO 205
[25] = tested on: SF-268
[26] = tested on: HCT-15
[27] = tested on: NCI-H460
[28] = tested on: HOP-92
[29] = tested on: CAKI-1
[30] = tested on: T47D
[31] = tested on: HCC 2998
[32] = tested on: UO-31
[33] = tested on: ACHN
[34] = tested on: A498
[35] = tested on: SK-MEL-2
[36] = tested on: HCT-116
[37] = tested on: RXF 393
[38] = tested on: OVCAR-3
[39] = tested on: LOX IMVI
[40] = tested on: MDA-MB-435
[41] = tested on: CCRF-CEM
[42] = tested on: KM12
[43] = tested on: OVCAR-5
[44] = tested on: SN12C
[45] = tested on: Hs-578T
[46] = tested on: SF-295
[47] = tested on: M14
[48] = tested on: OVCAR-8
[49] = tested on: UACC-257
[50] = tested on: SW-620
[51] = tested on: NCI-H522
[52] = tested on: EKVX
[53] = tested on: MCF7
[54] = tested on: SF-539
[55] = tested on: HL-60
[56] = tested on: MOLT-4
[57] = tested on: K562

CCOC(=O)c1sc2nc(SC)nc3c2c1NCN3C1CC1
GI50 [1]: > 100 µM (inactive) | GI50 [2]: > 100 µM (inactive) | GI50 [3]: > 100 µM (inactive) | GI50 [4]: 48.2 µM (inactive) | GI50 [5]: > 100 µM (inactive) | GI50 [6]: > 100 µM (inactive) | GI50 [7]: > 100 µM (inactive) | GI50 [8]: > 100 µM (inactive) | GI50 [9]: > 100 µM (inactive) | GI50 [10]: > 100 µM (inactive) | GI50 [11]: > 100 µM (inactive) | GI50 [12]: > 100 µM (inactive) | GI50 [13]: > 100 µM (inactive) | GI50 [14]: > 100 µM (inactive) | GI50 [15]: > 100 µM (inactive) | GI50 [16]: > 100 µM (inactive) | GI50 [17]: > 100 µM (inactive) | GI50 [18]: > 100 µM (inactive) | GI50 [19]: 38.8 µM (inactive) | GI50 [20]: > 100 µM (inactive) | GI50 [21]: > 100 µM (inactive) | GI50 [22]: > 100 µM (inactive) | GI50 [23]: > 100 µM (inactive) | GI50 [24]: > 100 µM (inactive) | GI50 [25]: > 100 µM (inactive) | GI50 [26]: > 100 µM | GI50 [27]: > 100 µM (inactive) | GI50 [28]: > 100 µM (inactive) | GI50 [29]: > 100 µM (inactive) | GI50 [30]: 48.6 µM (inactive) | GI50 [31]: > 100 µM (inactive) | GI50 [32]: > 100 µM (inactive) | GI50 [33]: > 100 µM (inactive) | GI50 [34]: > 100 µM (inactive) | GI50 [35]: > 100 µM (inactive) | GI50 [36]: > 100 µM (inactive) | GI50 [37]: > 100 µM (inactive) | GI50 [38]: > 100 µM (inactive) | GI50 [39]: > 100 µM (inactive) | GI50 [40]: > 100 µM (inactive) | GI50 [41]: > 100 µM (inactive) | GI50 [42]: > 100 µM (inactive) | GI50 [43]: > 100 µM (inactive) | GI50 [44]: > 100 µM (inactive) | GI50 [45]: 74.5 µM (inactive) | GI50 [46]: > 100 µM (inactive) | GI50 [47]: > 100 µM (inactive) | GI50 [48]: 36.6 µM (inactive) | GI50 [49]: > 100 µM (inactive)

CNC(C)C(O)c1ccc2oc3cc(=O)c4ccccc4c-3nc2c1 (stereo not drawn)
GI50 [1]: 31.5 µM (inactive) | GI50 [2]: 2.48 µM (inactive) | GI50 [3]: 5.82 µM (inactive) | GI50 [5]: 14.4 µM (inactive) | GI50 [6]: 40.1 µM (inactive) | GI50 [7]: 38.7 µM (inactive) | GI50 [50]: 6.35 µM (inactive) | GI50 [51]: 13.3 µM (inactive) | GI50 [8]: 4.34 µM (inactive) | GI50 [10]: 5.31 µM (inactive) | GI50 [11]: 5.64 µM (inactive) | GI50 [12]: 18.9 µM (inactive) | GI50 [13]: 45.5 µM (inactive) | GI50 [14]: 3.82 µM (inactive) | GI50 [52]: 40 µM (inactive) | GI50 [53]: 18.9 µM (inactive) | GI50 [15]: 36.3 µM (inactive) | GI50 [16]: 17.3 µM (inactive) | GI50 [17]: 11.5 µM (inactive) | GI50 [18]: 6.44 µM (inactive) | GI50 [20]: 7.76 µM (inactive) | GI50 [21]: 5.13 µM (inactive) | GI50 [22]: 32.6 µM (inactive) | GI50 [23]: 4.3 µM (inactive) | GI50 [24]: 35.9 µM (inactive) | GI50 [25]: 27.2 µM (inactive) | GI50 [26]: 4.83 µM | GI50 [27]: 4.67 µM (inactive) | GI50 [28]: 94.6 µM (inactive) | GI50 [29]: 16.1 µM (inactive) | GI50 [54]: 1.45 µM (inactive) | GI50 [30]: 31.6 µM (inactive) | GI50 [31]: 27.9 µM (inactive) | GI50 [32]: 13.8 µM (inactive) | GI50 [33]: 6.25 µM (inactive) | GI50 [34]: 24 µM (inactive) | GI50 [35]: 4.69 µM (inactive) | GI50 [36]: 5.24 µM (inactive) | GI50 [37]: 25.8 µM (inactive) | GI50 [55]: 21.8 µM (inactive) | GI50 [38]: 11.9 µM (inactive) | GI50 [39]: 4.1 µM (inactive) | GI50 [40]: 1.97 µM (inactive) | GI50 [41]: 5.52 µM (inactive) | GI50 [42]: 9.84 µM (inactive) | GI50 [43]: 32.5 µM (inactive) | GI50 [44]: 10.6 µM (inactive) | GI50 [45]: 2.26 µM (inactive) | GI50 [46]: 4.59 µM (inactive) | GI50 [47]: 4.65 µM (inactive) | GI50 [48]: 6.15 µM (inactive) | GI50 [56]: 19.4 µM (inactive) | GI50 [49]: 5.37 µM (inactive) | GI50 [57]: 2.72 µM (inactive)
